Positions count from the first letter of the chain named.
Legend:
Assay in all cases: substrate-stimulated ATPase assay (colorimetric Pi release)
Assay type in all cases: biochemical
chABCD1 (chimeric ABCD1) [1] = target: T1, chABCD1 (chimeric ABCD1) (Homo sapiens, UniProt P33897, G343V); settings: 5 μM C22:0-CoA, 2 mM ATP, 2 mM MgCl2, LMNG + CHS, pH 7.5, 37 °C
T1 construct: single polypeptide: N-terminal FLAG tag, PMP-4 residues 1-65 replacing human ABCD1 residues 1-63, then human ABCD1 64-745; HEK293F; homodimer; LMNG/CHS for assays, digitonin for cryo-EM; with PMP-4 (peroxisomal membrane protein related, ABCD1 homolog, Caenorhabditis elegans; N-terminal segment fused to the target chain)
T1 sequence (P33897 64-745 G343V): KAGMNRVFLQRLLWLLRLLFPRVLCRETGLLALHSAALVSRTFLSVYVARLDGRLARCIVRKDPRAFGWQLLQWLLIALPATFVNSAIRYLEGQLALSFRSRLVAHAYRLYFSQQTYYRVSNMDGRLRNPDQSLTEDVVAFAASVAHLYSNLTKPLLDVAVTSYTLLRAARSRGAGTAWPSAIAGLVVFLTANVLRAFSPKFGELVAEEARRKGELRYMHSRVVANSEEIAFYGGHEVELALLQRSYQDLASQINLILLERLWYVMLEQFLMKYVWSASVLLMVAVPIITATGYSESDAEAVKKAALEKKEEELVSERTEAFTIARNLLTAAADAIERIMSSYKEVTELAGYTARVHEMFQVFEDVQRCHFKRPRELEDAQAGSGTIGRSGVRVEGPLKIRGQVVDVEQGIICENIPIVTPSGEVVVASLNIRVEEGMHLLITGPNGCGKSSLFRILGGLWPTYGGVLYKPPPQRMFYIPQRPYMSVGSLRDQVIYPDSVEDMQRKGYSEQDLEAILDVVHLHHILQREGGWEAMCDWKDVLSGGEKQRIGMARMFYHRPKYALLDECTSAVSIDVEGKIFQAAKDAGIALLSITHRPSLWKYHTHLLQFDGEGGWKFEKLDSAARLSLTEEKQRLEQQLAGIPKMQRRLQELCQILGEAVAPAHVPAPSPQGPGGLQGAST

chABCD1 (chimeric ABCD1) [2] = target: T2, chABCD1 (chimeric ABCD1) (Homo sapiens, UniProt P33897)
T2 construct: single polypeptide: N-terminal FLAG tag, PMP-4 residues 1-65 replacing human ABCD1 residues 1-63, then human ABCD1 64-745; HEK293F; homodimer; LMNG/CHS for assays, digitonin for cryo-EM; with PMP-4 (peroxisomal membrane protein related, ABCD1 homolog, Caenorhabditis elegans; N-terminal segment fused to the target chain)
T2 sequence (P33897 64-745): T1 sequence (P33897 64-745 G343V) with V280G

chABCD1 (chimeric ABCD1) [3] = target: T3, chABCD1 (chimeric ABCD1) (Homo sapiens, UniProt P33897, Y337F); settings: 5 μM C22:0-CoA, 2 mM ATP, 2 mM MgCl2, LMNG + CHS, pH 7.5, 37 °C
T3 construct: single polypeptide: N-terminal FLAG tag, PMP-4 residues 1-65 replacing human ABCD1 residues 1-63, then human ABCD1 64-745; HEK293F; homodimer; LMNG/CHS for assays, digitonin for cryo-EM; with PMP-4 (peroxisomal membrane protein related, ABCD1 homolog, Caenorhabditis elegans; N-terminal segment fused to the target chain)
T3 sequence (P33897 64-745 Y337F): T1 sequence (P33897 64-745 G343V) with Y274F, V280G

chABCD1 (chimeric ABCD1) [4] = target: T4, chABCD1 (chimeric ABCD1) (Homo sapiens, UniProt P33897, DEL694-745)
T4 construct: single polypeptide: N-terminal FLAG tag, PMP-4 residues 1-65 replacing human ABCD1 residues 1-63, then human ABCD1 64-745; HEK293F; homodimer; LMNG/CHS for assays, digitonin for cryo-EM; with PMP-4 (peroxisomal membrane protein related, ABCD1 homolog, Caenorhabditis elegans; N-terminal segment fused to the target chain)
T4 sequence (P33897 64-693): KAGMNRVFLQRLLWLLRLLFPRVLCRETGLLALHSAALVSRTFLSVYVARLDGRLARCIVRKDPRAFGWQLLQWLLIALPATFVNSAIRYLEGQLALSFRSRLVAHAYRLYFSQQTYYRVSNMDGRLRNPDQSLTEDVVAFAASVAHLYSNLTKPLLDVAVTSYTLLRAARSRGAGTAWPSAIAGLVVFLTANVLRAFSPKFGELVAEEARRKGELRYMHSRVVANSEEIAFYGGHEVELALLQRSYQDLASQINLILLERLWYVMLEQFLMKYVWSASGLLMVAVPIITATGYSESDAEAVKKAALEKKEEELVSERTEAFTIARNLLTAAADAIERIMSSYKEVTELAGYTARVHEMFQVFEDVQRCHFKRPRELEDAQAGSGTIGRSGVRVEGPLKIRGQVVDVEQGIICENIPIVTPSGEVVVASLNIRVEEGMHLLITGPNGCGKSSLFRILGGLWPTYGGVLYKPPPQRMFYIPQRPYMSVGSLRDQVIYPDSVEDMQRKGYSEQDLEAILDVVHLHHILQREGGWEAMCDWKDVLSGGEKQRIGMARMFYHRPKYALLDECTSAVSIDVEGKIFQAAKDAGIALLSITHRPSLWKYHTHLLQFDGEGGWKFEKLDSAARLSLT

**Q.** With CCCCCCCCCCCCCCCCCCCCCC(=O)SCCNC(=O)CCNC(=O)[C@H](O)C(C)(C)COP(=O)(O)OP(=O)(O)OC[C@H]1O[C@@H](n2cnc3c(N)ncnc32)[C@H](O)[C@@H]1OP(=O)(O)O [C22:0-CoA] as the molecule, how does the “relative ATPase activity” value (chABCD1 (chimeric ABCD1) [1]) read?
**A.** The value was “displayed significantly decreased substrate-simulated ATPase activity, compared to the wild-type”.

**Q.** What about the EC50 (chABCD1 (chimeric ABCD1) [2]) of the same molecule?
**A.** Its EC50 is roughly 2 µM.

**Q.** And the “relative ATPase activity” value (chABCD1 (chimeric ABCD1) [3])?
**A.** The value was “displayed significantly decreased substrate-simulated ATPase activity, compared to the wild-type”.

**Q.** What about the EC50 (chABCD1 (chimeric ABCD1) [4]) of the same molecule?
**A.** The EC50 was roughly 4 µM.
